Test results taken from patent US20160346249A1 (priority 2012, published 2016).

Columns and labels:
[1] = Brain and plasma levels of amitifadine and lactam metabolite EB-10101 in rat; type: in vivo; set-up: metabolite plasma level (mean±SEM): unit not given here; conditions: for metabolite plasma level (mean±SEM): amitifadine 10 mg/kg po
Description: The studies are conducted in accordance with the Institutional Animal Care and Use Committee guidelines. […] At 0.5, 1, 2, and 4 hour after dosage, animals are briefly anesthetized in a chamber containing 4% isoflurane and rapidly decapitated. Trunk blood is collected in heparinized tubes (9 units/ml whole blood), immediately chilled to 4° C., centrifuged, and the plasma is frozen at −80° C. until analyzed. Brains are quickly removed, bisected along the midline, and frozen at −80° C. until analyzed.
Plasma and brain samples are allowed to thaw on ice and are homogenized in a 20 ml glass vial in two volumes of ice cold water using a handheld homogenizer (VDI 12, VWR International). Standard curves are prepared in water, control plasma, and control brain homogenate. Equal volumes (100 μl) of plasma and brain homogenate samples, distilled water and internal standard are mixed in 1.5 ml polypropylene tubes and 300 μl of acetonitrile is added to each mixture. Samples are then mixed thoroughly by placing on a shaker at 200 RPM for 40 minutes at room temperature. The samples are then centrifuged at 10,000×g for 10 minutes at 4° C. and the supernatant (200 μl) is transferred to a tube containing 2 μl of 10% formic acid. The samples are subjected to a Zorbax SBC18 Solvent Saver Plus 3.0×150 mm 3.5-μm column on a Shimadzu Prominence LC. […] The concentration of compound in the column effluent is measured using an Applied Biosystems API-3200 triple quadrupole mass spectrometer.

[2] = Rat CNS study (functional observational battery, locomotor activity); conditions: Crl:CD(SD)IGS BR, in vivo; for mean rearing counts lower than control, 2-minute open field: po; for mean rearing counts lower than control, 2-minute open field / mean urination values higher than control: 1 h
Description: There were eight animals of each gender per group. Functional observational battery (FOB) assessments and automated 1-hour locomotor activity data were recorded for all animals 7 days prior to dose administration (pre-test), and again beginning 1 hour following dosing on Day 0. Following completion of the FOB and locomotor activity evaluations, all animals were euthanized and discarded.

[3] = Anesthetized dog intravenous cardiovascular study; type: in vivo
Description: Whole blood samples were collected via a cannulated femoral vein at 0, 10, 20, and 29 minutes (timed from the start of each dose administration).
A separate group of 4 dogs was infused with vehicle only (30-60 mL over 90 minutes) for comparison. […] Whole blood samples were collected for determination of peak plasma concentrations (see Section 5.3.3) following infusion of each dose.

[4] = 2-week dog toxicity and toxicokinetic study; type: in vivo
Description: Blood samples were collected on Day 0 and Day 13 of the study from up to 2 animals/gender/group.
Clinical pathology evaluations (hematology and serum chemistry) were performed prior to the initiation of treatment (Week −1) and just prior to the scheduled necropsy. At termination, necropsies were conducted and selected organs were weighed. Selected tissues were examined microscopically for animals in the control and high-dose groups.

[5] = Rat pulmonary function study; type: in vivo; conditions: for animals with test article-related clinical observations: 6 hours post-dosing
Description: There were eight male rats per group. Clinical examinations were performed daily, and detailed physical examinations were performed prior to dosing and again following pulmonary functional assessments. Four replicates of 2 animals from each treatment group were evaluated over a 2-week period. Following dose administration, the rats were placed in a head-out neck-sealed plethysmograph for measurement of pulmonary function parameters (respiratory rate, tidal volume, and calculated minute volume). Pulmonary function data were collected for at least 60 minutes prior to dosing (Day −1) and for at least 6 hours post-dosing on Day 0.

[6] = Single-dose (25 mg) gender study in males and females (DOV-947-005); type: in vivo, human; conditions: for AUC(0-inf) / AUC(0-t) / Cmax / Tmax / half-life: human, in vivo, single oral dose 25 mg
[7] = Single-dose intravenous rat toxicology study; conditions: Crl:CD(SD)IGS BR, in vivo
Description: Clinical observations, body weights, and food consumption were noted periodically. All animals were euthanized following a minimum 13-day non-dosing (recovery) period. Clinical pathology evaluations (hematology and serum chemistry) were performed on all rats at the time of necropsy and selected organs were weighed. No microscopic examinations were performed.

[8] = 14-day mouse toxicity and toxicokinetic study; conditions: both, Crl:CD-1(ICR) BR, in vivo, po
[9] = female, beagle, in vivo, po, 5 mg/kg/day, females, 5 mg/kg/day, Day 0
[10] = female, beagle, in vivo, po, 5 mg/kg/day, females, 5 mg/kg/day, Day 13
[11] = female, beagle, in vivo, po, 10 mg/kg/day, females, 10 mg/kg/day, Day 0
[12] = female, beagle, in vivo, po, 10 mg/kg/day, females, 10 mg/kg/day, Day 13
[13] = female, beagle, in vivo, po, 20 mg/kg/day, females, 20 mg/kg/day, Day 0
[14] = male, beagle, in vivo, po, 5 mg/kg/day, males, 5 mg/kg/day, Day 0
[15] = male, beagle, in vivo, po, 5 mg/kg/day, males, 5 mg/kg/day, Day 13
[16] = male, beagle, in vivo, po, 10 mg/kg/day, males, 10 mg/kg/day, Day 0
[17] = male, beagle, in vivo, po, 10 mg/kg/day, males, 10 mg/kg/day, Day 13
[18] = male, beagle, in vivo, po, 20 mg/kg/day, males, 20 mg/kg/day, Day 0
[19] = male, beagle, in vivo, po, 20 mg/kg/day, males, 20 mg/kg/day, Day 13

For `O=C1NCC2(c3ccc(Cl)c(Cl)c3)CC12` (stereo not shown) [EB-10101, 5-(3,4-dichloro-phenyl)-3-aza-bicyclo[3.1.0]hexan-2-one], the “metabolite plasma level (mean±SEM)” value ([1]; 0.5 h) was 1153±610, the “metabolite plasma level (mean±SEM)” value ([1]; 1 h) was 1620±303 and the “metabolite plasma level (mean±SEM)” value ([1]; 2 h) was 3831±1127. The “metabolite plasma level (mean±SEM)” value ([1]; 4 h) was 8896±794, the Kp at 0.5 h ([1]; male, Sprague-Dawley, rat, brain and plasma, 10 mg/kg oral, 0.5 h, read-out: brain to plasma ratio) was 1.1 and the Kp at 1 h ([1]; male, Sprague-Dawley, rat, brain and plasma, 10 mg/kg oral, 1 h, read-out: brain to plasma ratio) was 1.3. For the same molecule, the Kp at 2 h ([1]; male, Sprague-Dawley, rat, brain and plasma, 10 mg/kg oral, 2 h, read-out: brain to plasma ratio) was 1.4 and the Kp at 4 h ([1]; male, Sprague-Dawley, rat, brain and plasma, 10 mg/kg oral, 4 h, read-out: brain to plasma ratio) was 1.7.
In the case of `Clc1ccc([C@]23CNC[C@H]2C3)cc1Cl` [amitifadine, (+)-1-(3,4-dichlorophenyl)-3-azabicyclo[3.1.0]hexane], the NOAEL ([2]; both sexes, single oral gavage, read-out: NOAEL for CNS toxicity) was 100 mg/kg, the “mean rearing counts lower than control, 2-minute open field” value (“mean rearing counts lower than control” below) ([2]; female, 30 mg/kg) was 67.1% and the “mean rearing counts lower than control” value ([2]; female, 100 mg/kg) was 78.6%. The “mean urination values higher than control” value ([2]; male, 10 mg/kg) was “approximately 3 fold”, the “mean urination values higher than control” value ([2]; male, 30 mg/kg) was “approximately 3 fold” and the “mean urination values higher than control” value ([2]; male, 100 mg/kg) was about 5 fold. For the same molecule, the “mean rearing counts lower than control” value ([2]; male, 100 mg/kg) was 56.5%, the “hemolysis in derived plasma fractions” value ([3]; IV infusion 2-29 mg/kg cumulative) was “Dose-related hemolysis was apparent” and the “change in BF” value ([3]; top dose) was −57%. For the same molecule, the “change in HR” value ([3]; top dose) was “+10%”, the “change in PR interval vs baseline” value ([3]; top dose) was −9% and the “change in QRS interval vs baseline” value ([3]; top dose) was “+2%”. For the same molecule, the “change in QTC interval vs baseline” value ([3]; top dose) was “+2%”, the “change in femoral vascular resistance” value ([3]; top dose) was “+354%” and the “(+) to (−) stereoisomer conversion” value [4] was “no evidence of (+) to (−) stereoisomer conversion”. It also gave an NOAEL at 14 days ([4]; both sexes, beagle, in vivo, oral capsule, 14 days, read-out: NOAEL for systemic toxicity) of 10 mg/kg/day, an AUC(0-t) ([4]; female, beagle, in vivo, oral, 10 mg/kg/day, females, 10 mg/kg/day, Day 13, read-out: AUC0-24) of 11200 ng·h/mL and a Cmax [4, 9] of 1650 ng/mL. For the same molecule, the Tmax [4, 9] was 2 h, the AUC(0-t) ([4]; female, beagle, in vivo, po, 5 mg/kg/day, females, 5 mg/kg/day, Day 0, read-out: AUC0-24) was 5570 ng·h/mL and the Cmax [4, 10] was 2040 ng/mL. It also gave a Tmax [4, 10] of 1 h, an AUC(0-t) ([4]; female, beagle, in vivo, po, 5 mg/kg/day, females, 5 mg/kg/day, Day 13, read-out: AUC0-24) of 5610 ng·h/mL and a Cmax [4, 11] of 3450 ng/mL. The Tmax [4, 11] was 1 h, the AUC(0-t) ([4]; female, beagle, in vivo, po, 10 mg/kg/day, females, 10 mg/kg/day, Day 0, read-out: AUC0-24) was 15000 ng·h/mL and the Cmax [4, 12] was 2800 ng/mL. It also gave a Tmax [4, 12] of 2 h, a Cmax [4, 13] of 9950 ng/mL and a Tmax [4, 13] of 1 h. The AUC(0-t) ([4]; female, beagle, in vivo, po, 20 mg/kg/day, females, 20 mg/kg/day, Day 0, read-out: AUC0-24) was 57100 ng·h/mL, the Cmax ([4]; female, beagle, in vivo, po, 20 mg/kg/day, females, 20 mg/kg/day, Day 13) was 3530 ng/mL and the AUC(0-t) ([4]; female, beagle, in vivo, po, 20 mg/kg/day, females, 20 mg/kg/day, Day 13, read-out: AUC0-24) was 11500 ng·h/mL. For the same molecule, the AUC(0-t) ([4]; male, beagle, in vivo, oral, 10 mg/kg/day, males, 10 mg/kg/day, Day 13, read-out: AUC0-24) was 3170 ng·h/mL, the Cmax [4, 14] was 1580 ng/mL and the Tmax [4, 14] was 1 h. It also gave an AUC(0-t) ([4]; male, beagle, in vivo, po, 5 mg/kg/day, males, 5 mg/kg/day, Day 0, read-out: AUC0-24) of 7360 ng·h/mL, a Cmax [4, 15] of 1840 ng/mL and a Tmax [4, 15] of 2 h. For the same molecule, the AUC(0-t) ([4]; male, beagle, in vivo, po, 5 mg/kg/day, males, 5 mg/kg/day, Day 13, read-out: AUC0-24) was 7550 ng·h/mL, the Cmax [4, 16] was 3830 ng/mL and the Tmax [4, 16] was 1 h. It also gave an AUC(0-t) ([4]; male, beagle, in vivo, po, 10 mg/kg/day, males, 10 mg/kg/day, Day 0, read-out: AUC0-24) of 13800 ng·h/mL, a Cmax [4, 17] of 1280 ng/mL and a Tmax [4, 17] of 1 h. It also gave a Cmax [4, 18] of 11600 ng/mL, a Tmax [4, 18] of 1 h and an AUC(0-t) ([4]; male, beagle, in vivo, po, 20 mg/kg/day, males, 20 mg/kg/day, Day 0, read-out: AUC0-24) of 41700 ng·h/mL. For the same molecule, the Cmax [4, 19] was 9280 ng/mL, the Tmax [4, 19] was 1 h and the AUC(0-t) ([4]; male, beagle, in vivo, po, 20 mg/kg/day, males, 20 mg/kg/day, Day 13, read-out: AUC0-24) was 32800 ng·h/mL. For the same molecule, the “animals with test article-related clinical observations” value ([5]; 30 mg/kg) was “⅜”, the increased respiratory frequency ([5]; 100 mg/kg, 16 to 30 minutes post-dosing) was 23% and the “animals with test article-related clinical observations” value ([5]; 100 mg/kg) was 6/8. For the same molecule, the elevated respiratory frequency ([5]; 100 mg/kg, later post-treatment intervals) was at least 33%, the NOAEL ([5]; male, Crl:CD(SD)IGS BR, rat, in vivo, single oral gavage) was 30 mg/kg and the QTc prolongation ([6]; 25 mg) was “no sustained or significant prolongation of QTc”. For the same molecule, the “gender difference in Cmax or AUC” value ([6]; 25 mg) was “no difference in either Cmax or AUC values between the two sexes”, the “subjects with orthostatic hypotension” value ([6]; all subjects, 25 mg) was 30% and the AUC(0-inf) ([6]; female, Females (N = 38)) was 1590 ng·h/mL. It also gave an AUC(0-t) ([6]; female, Females (N = 38)) of 1490 ng·h/mL, a Cmax ([6]; female, Females (N = 38)) of 291 ng/mL and a Tmax ([6]; female, Females (N = 38)) of 1.38 h. For the same molecule, the half-life ([6]; female, Females (N = 38)) was 224 min, the “subjects with orthostatic hypotension” value ([6]; females, 25 mg) was 28.9% and the AUC(0-inf) ([6]; male, Males (N = 32)) was 1440 ng·h/mL. For the same molecule, the AUC(0-t) ([6]; male, Males (N = 32)) was 1360 ng·h/mL, the Cmax ([6]; male, Males (N = 32)) was 273 ng/mL and the Tmax ([6]; male, Males (N = 32)) was 1.27 h. The half-life ([6]; male, Males (N = 32)) was 205 min, the “subjects with orthostatic hypotension” value ([6]; males, 25 mg) was 31.3% and the NOAEL at 13 days ([7]; female rats) was 5 mg/kg. For the same molecule, the NOAEL at 13 days ([7]; male rats) was 1.5 mg/kg and the NOAEL at 14 days [8] was 100 mg/kg/day.
